For assay [1], the system named is U-937. Put plainly: Inhibition of recombinant CBP in human U937 cells at 50 uM. In kind it is cell-based. Further details: scale not given: the % may be the effect or the level left.
Assay [2] has as its target Histone acetyltransferase KAT2A (Homo sapiens) (UniProt Q92830). Put plainly: Inhibition of GCN5 in human U937 cells at 50 uM. Type of assay: cell-based. The note with it: U-937.
The subject of assay [3] is U-937. The assay can be described thus: Inhibition of p300/CBP in human U937 cells at 50 uM. Further details: scale not given: the % may be the effect or the level left. In kind it is cell-based.
Assay [4] relates to HEK-TE. The assay can be described thus: Increase in histone H3 acetylation in human HEK-TE cells at 5 uM after 6 hrs by Western blot analysis. In kind it is functional, cell-based. In general terms: In western blotting, separated proteins are transferred to a membrane and probed.
In assay [5] the test system is U-937. Put plainly: Effect on non histone alpha-tubulin in human U937 cells at 50 uM after 16 hrs by Western blot analysis. In kind it is functional, cell-based.
Assay [6] deals with U-937. The assay can be described thus: Increase in histone H3 acetylation in human U937 cells at 50 uM after 16 hrs by Western blot analysis. In kind it is functional, cell-based.
Assay [7] deals with U-937. Put plainly: Increase in histone H3 acetylation in human U937 cells at 5 uM after 20 hrs by Western blot analysis. Type of assay: functional, cell-based.
The target of assay [8] is Histone acetyltransferase KAT2B (Homo sapiens) (UniProt Q92831). Put plainly: Effect on PCAF in human U937 cells assessed as increase in acetylation activity at 50 uM. In kind it is cell-based. The note with it: U-937.
Assay [9] relates to U-937. The assay can be described thus: Cell cycle arrest in human U937 cells assessed as accumulation at S phase at 25 uM after 42 hrs by flow cytometry. In kind it is functional, cell-based. On the technique in general: In flow cytometry, cells or beads pass a laser one at a time.
In assay [10] the test system is U-937. Put plainly: Induction of apoptosis in human U937 cells at 50 uM after 42 hrs by flow cytometry. In kind it is functional.
Assay [11] deals with U-937. Put plainly: Induction of apoptosis in human U937 cells at 25 uM after 42 hrs by flow cytometry. Type of assay: functional.
The subject of assay [12] is U-937. Put plainly: Increase in histone H3 acetylation in human U937 cells at 50 uM after 20 hrs by Western blot analysis. In kind it is functional, cell-based.
Assay [13] has as its system HEK-TE. The assay can be described thus: Increase in histone H3 acetylation in human HEK-TE cells at 50 uM after 6 hrs by Western blot analysis. Type of assay: functional, cell-based.

The source made the active and inactive calls. No cut-off for these calls is given here.

Chain of Histone acetyltransferase KAT2A (Homo sapiens) (Q92830 2-837 limits assumed): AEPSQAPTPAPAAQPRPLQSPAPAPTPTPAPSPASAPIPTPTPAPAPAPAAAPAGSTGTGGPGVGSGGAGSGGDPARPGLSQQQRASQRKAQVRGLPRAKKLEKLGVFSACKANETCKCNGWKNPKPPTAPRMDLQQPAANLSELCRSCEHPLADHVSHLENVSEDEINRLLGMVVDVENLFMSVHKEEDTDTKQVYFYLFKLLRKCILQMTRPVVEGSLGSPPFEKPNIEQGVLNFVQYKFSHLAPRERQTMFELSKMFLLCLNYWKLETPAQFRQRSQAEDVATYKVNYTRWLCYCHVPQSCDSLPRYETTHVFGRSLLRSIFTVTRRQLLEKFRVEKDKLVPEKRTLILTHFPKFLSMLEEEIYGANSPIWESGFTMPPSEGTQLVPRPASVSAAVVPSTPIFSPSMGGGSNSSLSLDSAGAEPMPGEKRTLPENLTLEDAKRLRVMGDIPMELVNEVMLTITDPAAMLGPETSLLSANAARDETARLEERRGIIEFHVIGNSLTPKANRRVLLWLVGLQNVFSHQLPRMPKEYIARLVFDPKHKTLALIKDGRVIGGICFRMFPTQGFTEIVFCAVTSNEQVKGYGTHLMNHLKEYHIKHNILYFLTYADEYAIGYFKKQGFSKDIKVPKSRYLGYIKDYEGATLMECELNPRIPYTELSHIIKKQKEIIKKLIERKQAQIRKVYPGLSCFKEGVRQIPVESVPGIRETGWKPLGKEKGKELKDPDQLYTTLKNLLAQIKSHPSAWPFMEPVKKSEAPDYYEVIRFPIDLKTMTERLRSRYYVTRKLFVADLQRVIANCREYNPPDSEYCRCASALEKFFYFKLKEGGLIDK
Chain of Histone acetyltransferase KAT2B (Homo sapiens) (Q92831 whole entry, looked up): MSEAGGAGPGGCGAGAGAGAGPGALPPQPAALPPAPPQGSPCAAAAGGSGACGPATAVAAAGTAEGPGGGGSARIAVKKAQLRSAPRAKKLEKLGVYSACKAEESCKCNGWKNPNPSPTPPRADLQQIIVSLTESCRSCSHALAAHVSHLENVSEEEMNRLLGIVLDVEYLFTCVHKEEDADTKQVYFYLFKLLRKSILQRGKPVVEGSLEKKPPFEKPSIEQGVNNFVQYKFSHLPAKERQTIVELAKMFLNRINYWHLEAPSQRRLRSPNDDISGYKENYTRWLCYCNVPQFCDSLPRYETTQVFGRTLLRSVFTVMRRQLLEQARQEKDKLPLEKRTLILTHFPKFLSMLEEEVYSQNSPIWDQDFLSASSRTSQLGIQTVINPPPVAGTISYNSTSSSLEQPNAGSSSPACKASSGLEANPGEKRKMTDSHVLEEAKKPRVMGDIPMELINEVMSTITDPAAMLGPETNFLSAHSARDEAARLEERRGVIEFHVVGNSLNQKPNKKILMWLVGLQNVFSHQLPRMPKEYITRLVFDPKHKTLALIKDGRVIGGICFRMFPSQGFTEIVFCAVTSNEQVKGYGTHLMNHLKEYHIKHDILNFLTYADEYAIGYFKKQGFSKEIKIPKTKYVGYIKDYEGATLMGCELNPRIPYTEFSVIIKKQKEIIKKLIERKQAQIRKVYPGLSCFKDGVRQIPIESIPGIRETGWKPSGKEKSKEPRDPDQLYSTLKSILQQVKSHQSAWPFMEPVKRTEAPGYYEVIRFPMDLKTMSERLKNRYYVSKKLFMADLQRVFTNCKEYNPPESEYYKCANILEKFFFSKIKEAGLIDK

Consider `C=C1C(=O)O[C@H](CCC)[C@H]1C(=O)O`, for which the Activity in the assay on U-937 [1] is 55%.

As to `CCCCCCCCCCCCCCC=C(C(=O)OCC)C(=O)OCC`, the result (in assay [2]; in the assay on U-937 [5]) was inactive. Moreover, the Activity in the assay with U-937 [3] came out at 74%; in the assay with U-937 [10] it was 94.4%; with U-937 [11], 23.9%; in the assay with U-937 [1] it was 81%. Besides, the result (in the assay with HEK-TE [4]; in the assay on U-937 [6]; with U-937 [7]; in [8]; in the assay with U-937 [9]; in the assay with U-937 [12]) was Active. In addition, the outcome in the assay on HEK-TE [13] was Active.

With `CCCCCCCCCCCCCC=C(C(=O)OCC)C(=O)OCC`, in the assay on U-937 [9], the outcome was Active. The compound further returned an Activity in the assay on U-937 [11] of 23.8%.

Compound `COc1cc(/C=C/C(=O)CC(=O)/C=C/c2ccc(O)c(OC)c2)ccc1O` registered an Activity with U-937 [3] of 46%.

In the case of `C=CC/C=C\C/C=C\CCCCCCCc1cccc(O)c1C(=O)O`, the Activity in the assay with U-937 [1] turned out to be 62%.

As for `O=C(CCCCCCC(=O)Nc1ccccc1)NO`, the outcome with HEK-TE [4] was Active.
